Measurements as given in patent publication US20250041286A1, “CANCER TREATMENT USING KETOTIFEN IN COMBINATION WITH A CHECKPOINT INHIBITOR” (Materia Therapeutics Inc., priority 2021, published 2025).

Assays:
MCA205 cells = assay: Re-challenge of long-term survivors with MCA205 cells; assay type: in vivo, mouse; conditions: re-challenge with 2.5×10^5 MCA205 cells s.c., 80 days after resection of primary tumors
Excerpt: Since doxorubicin has potential to establish favorable immunogenic conditions within the TME, which could affect the efficacy of immunotherapy, it was investigated if this immune response is preserved against rechallenge of long-term survivors with the same cell line. Mice were considered long-term survivors if no tumor was detected 80 days after surgical resection of MCA205 primary tumors. Five long-term survivors from each treatment group were further re-challenged with 2.5×10^5 MCA205 cells injected subcutaneously into the flank region. Cells were prepared in 50 μl of PBS. Naïve mice were implanted in parallel as controls.

MCA205 tumors = assay: Ketotifen pretreatment with doxorubicin / anti-PD-L1, tumor growth; assay type: in vivo, mouse; conditions: anti-PD-L1 10 mg/kg, doxorubicin 5 mg/kg i.p. days 7, 10, 13, ketotifen 10 mg/kg daily
Excerpt: Daily ketotifen continued until completion of doxorubicin-anti-PD-L1 combination treatment.

NIH3T3 cells = assay: Myofibroblast differentiation in co-culture, αSMA and collagen I immunofluorescence; assay type: cell-based, murine
Procedure: (§1) Given that both MCs and fibroblasts are present in the TME, the consequences of MC activation on myofibroblasts was explored using a co-culture assay in which murine MC/9 MCs and NIH3T3 myofibroblasts were separated by a transwell chamber with micropores that only allowed chemical communication (FIG. 13A). In this system, degranulation efficiency was determined by measuring the concentration of β-hexosaminidase (β-hex) in the supernatant. MC degranulation was induced through exposure to compound 48/80 (C48/80), which binds to the MRGPRB2 receptor (the orthologue of the human G-protein-coupled receptor MRGPRX2). […] Co-cultures treated with a vehicle control and Triton X-100 were used as internal assay control to evaluate background and maximum β-hex release, respectively. Transforming growth factor (TGF)-β1 was used as a fibroblast activator due to its capacity to induce a myofibroblast phenotype of the NIH3T3 cells. MC/9 cells were cultivated with NIH3T3 cells for 24 hours and then treated with either ketotifen or TGFβ for additional 24 hours in low serum medium, followed by a 30 minute sensitization with C48/80.
To further explore the MC-fibroblast interaction, the differentiation process of NIH3T3 cells in the co-culture system was monitored by assaying levels of αSMA and collagen I, which are two markers of the myofibroblast phenotype, by immunofluorescence staining (FIG. 13C, FIG. 13D, and FIG. 13E).

murine MC/9 MCs = assay: MC/9 - NIH3T3 transwell co-culture, mast cell degranulation by β-hexosaminidase release; assay type: cell-based; conditions: 24 hours treatment, then 30 minute sensitization with C48/80
Procedure: as §1

| Compound | tumor development after re-challenge (mice out of five long-term survivors per group) (MCA205 cells) | tumor growth (relative growth, tumor mass day 16) (MCA205 tumors) | αSMA and collagen I protein expression (NIH3T3 cells; TGFβ alone) | αSMA and collagen I protein expression (NIH3T3 cells; TGFβ together with activated MCs) | MC degranulation (β-hex release) (murine MC/9 MCs) |
| --- | --- | --- | --- | --- | --- |
| COc1cccc2c1C(=O)c1c(O)c3c(c(O)c1C2=O)C[C@@](O)(C(=O)CO)C[C@@H]3O[C@H]1C[C@H](N)[C@H](O)[C@H](C)O1 [doxorubicin] | four mice | Neither anti-PD-L1 nor doxorubicin monotherapies affected tumor growth |  |  |  |
| TGFβ: fibroblast activator inducing a myofibroblast phenotype of the NIH3T3 cells |  |  | no change was observed | significant increase | did not affect MC degranulation |
